The results in this text go back to PubChem BioAssay (NCI).

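The compound was tested at five concentrations on cells cultured in 96-well plates, with a 48-hour exposure period. GI50: concentration for 50% inhibition of growth. The concentration for full growth arrest is given as TGI.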

The experiment has as its system MDA-MB-468 breast. The experiment is described as follows: inhibition of tumour cell growth, NCI panel, 48 h.

Take `C[C@@H]1[C@H]2[C@H](C=C3[C@@H]4CC[C@H]5Cc6nc7c(nc6C[C@]5(C)[C@H]4C[C@@H](O)[C@@]32C)C[C@@H]2CC[C@H]3C4=C[C@@H]5O[C@@]6(CC[C@](C)(CO)O6)[C@@H](C)[C@@]5(O)[C@@]4(C)[C@H](O)C[C@@H]3[C@@]2(C)C7)O[C@]12CCC(C)(C)O2`: the GI50 is 961 nM and the TGI turned out to be 20700 nM.
As for `CCN1/C(=C/C=C/C=C/c2sc3ccccc3[n+]2CC)Sc2ccccc21`, the GI50 was 117 nM and the TGI worked out at 989 nM.
In the same order, the values of `COc1cc(-c2nc(-c3nnc(-c4ccc(F)c(Cl)c4)o3)c3ccccn23)cc(OC)c1OC` are 3390 nM and more than 100000 nM.
As to `O=C(C[C@@]1(O)C(=O)Nc2c(Cl)ccc(Cl)c21)c1ccc(C2CC2)cc1`, the GI50 was 221 nM and the TGI was found to be 18600 nM.
The like results for `COc1ccccc1-c1ccc2nc(NC(=O)Nc3cc(C(F)(F)F)cc(C(F)(F)F)c3)sc2c1` were, in that order, 1520 nM and 5430 nM.
In the same order, the values of `CSC1=Nc2c(c(C)c(-c3ccccc3)n2CCCCl)C2=NC(=O)CN12` are 3130 nM and 13100 nM.
Regarding `COc1nc2c(cc1S(=O)(=O)c1ccccc1)CCc1c-2cnn1Cc1ccccc1`, the GI50 is 6450 nM and the TGI is more than 100000 nM.
As for `CC(C)(C)CC(C)(C)N(CSc1ccc(Cl)cc1)CSc1ccc(Cl)cc1`, the GI50 was 2610 nM and the TGI came to 12400 nM.
Regarding `C[C@H](C(=O)N[C@@H](Cc1ccc(-c2ccccc2)cc1)C(=O)NC1CC(C)(C)N(C)C(C)(C)C1)c1ccc(-c2ccccc2)c(F)c1`, the GI50 was 1240 nM and the TGI is 2660 nM.
On to `NC(N)=Nc1ccc(Oc2cccc(Nc3ccc(Cl)c(C(F)(F)F)c3)c2)cc1`, for which the GI50 is 1480 nM and the TGI amounted to 3480 nM.
The like results for `CC(C)(C)OC(=O)N1CC(Cn2cc(C(F)(F)F)c3c(Cl)ncnc32)C1` were, in that order, 1840 nM and 3870 nM.
The like results for `COc1cccc2c1C(=O)c1c(O)c3c(c(O)c1C2=O)C[C@@](O)(C(=O)CO)C[C@@H]3OC1CC(OC(C)=O)C(OC(C)=O)C(C)O1` (stereo not given in full) were, in that order, 530 nM and 5060 nM.
Regarding `CCOC(=O)/C(=C/c1ccccc1)C(=O)c1ccccc1`, the GI50 is 3770 nM and the TGI amounted to 13800 nM.
The like results for `COc1cc2cn3c4ccc(O)cc4nc(N)c3c2cc1OC` were, in that order, 313 nM and 2210 nM.
`Cc1cc(O)c(C2=NN(c3ccc(S(N)(=O)=O)cc3)C(c3ccccc3O)C2)cc1Cl` (stereo not given): the GI50 was 2260 nM and the TGI is 5700 nM.
On to `NC(=O)c1ccc2nc(-c3ccc(C4(N)CCC4)cc3)c(-c3ccccc3)n2n1`, for which the GI50 is 169 nM and the TGI turned out to be 10300 nM.
`O=C1c2ccc3c4c(ccc(c24)C(=O)N1CCCNCc1ccccc1)C(=O)N(CCCNCc1ccccc1)C3=O`: the GI50 was 143 nM and the TGI is 285 nM.
The like results for `O=C1OCC2=C1C(c1cccc(C(F)(F)F)c1)c1cc3c(cc1N2CCO)OCO3` (stereo not given) were, in that order, 244 nM and 2160 nM.
The like results for `COc1ccc(-c2nn(-c3ccc(NC(=O)Nc4ccc(Cl)c(Cl)c4)cc3)cc2-c2ccncc2)cc1Cl` were, in that order, 1610 nM and 4480 nM.
The like results for `Cc1c2cnccc2c(C)c2c1c1cc(C(=O)O)ccc1n2C` were, in that order, 837 nM and 3070 nM.
